Data reported in patent US20130252811A1, “NOVEL HERBICIDE” (priority 2009, published 2013).

Experiments:
[1] = test system: Echinochloa crus-galli (ECHCG); assay: Flooded Echinochloa crus-galli, visual herbicidal damage (Biological Example 1, Test 125); assay type: in vivo; details: 14 DAA
Protocol: (§1) Rice seeds, variety IR-64 (an indica type of rice), were sown in seed trays. After 7 days the resulting plants were transplanted as 3 groups of 2 plants, into pots containing a standard sandy loam soil saturated with water replicating swampy conditions. These were grown on for a further 9 days in a glasshouse bay (30/20° C. day/night; 18/6 hours light/dark; 75% humidity). Leptochloa chinensis (LEFCH) and Echinochloa crus-galli (ECHCG) were sown as 2 separate groups of approx 10-20 seeds into pots 13 days prior to application of the test substances, in the same glasshouse conditions as the rice. Therefore, each pot of weeds contained a group of LEFCH and a separate group of ECHCG. All pots of rice and all pots of weeds were flooded to 2-3 cm water depth the day prior to application of the test substances. Growth stages at time of application were as follows: Rice: from 2 leaves on the main stem up to tillering; ECHCG: from 2 leaves on the main stem up to tillering; LEFCH: 2-3 leaves.
(§2) Test solutions were prepared by mixing the appropriate aliquots of the test substances in deionised water to give the desired treatment concentration. Most of the test substances were used as formulated products. Specifically, compound A-4 was applied as the EC050 formulation disclosed in Formulation Example 1 herein (EC=emulsifiable concentrate). Compound A-7 was applied as the EC050 Formulation disclosed in Formulation Example 2 herein. Compound A-9 was applied as the EC050 Formulation disclosed in Formulation Example 3 herein. Pyroxasulfone (a comparator co-herbicide) was applied as the SC050 formulation disclosed in Reference Formulation Example 7 herein (SC=Suspension concentrate). Imazosulfuron (a comparator co-herbicide) was applied as a GR0.25 formulation (GR=granule).
(§3) The test substances which were pure active ingredient (e.g. propyrisulfuron & fenoxasulfone) (labelled as ‘Technical’ in the following results table), were prepared by dissolving in 10.56% Emulsogen EL™ (castor oil ethoxylate, CAS Registry number 61791-12-6), 42.22% N-methylpyrrolidone and 42.22% dipropylene glycol mono-ethyl ether to give a stock solution containing 5% of the test substance and 95% of (Emulsogen EL™, N-methylpyrrolidone and dipropylene glycol mono-ethyl ether).
(§4) Application of the test substances was made by pipetting the required amount of the test solution or the test formulation gently into the flood water of the appropriate pot.
(§5) The test plants were then grown on in the same glasshouse conditions, and watered twice daily keeping the flood water at a depth of 2-3 cm.
(§6) A visual assessment of the % herbicidal damage was made 7 & 14 days after application (DAA), and the results are presented herein as % visual herbicidal damage where 0=no damage to plants and 100=total kill.

[2] = test system: Leptochloa chinensis (LEFCH); assay: Flooded Leptochloa chinensis, visual herbicidal damage (Biological Example 1, Test 125); assay type: in vivo; details: 14 DAA
Protocol: as §1, §2, §3, §4, §5, §6

Rice IR-64 = assay: Flooded transplanted rice, visual herbicidal damage (Biological Example 1, Test 125); assay type: in vivo, variety IR-64 (indica); details: 14 DAA, co-herbicide alone 10 g/ha
Protocol: as §1
Test solutions were prepared by mixing the appropriate aliquots of the test substances in deionised water to give the desired treatment concentration. Most of the test substances were used as formulated products. Specifically, compound A-4 was applied as the EC050 formulation disclosed in Formulation Example 1 herein (EC=emulsifiable concentrate). […]

[3] = compound of formula (I) 60 g/ha, no co-herbicide, 0=no damage, 100=total kill
[4] = compound of formula (I) 90 g/ha, no co-herbicide
[5] = compound of formula (I) 120 g/ha, no co-herbicide

SMILES	% damage to ECHCG [1, 3]	% damage to ECHCG [1, 4]	% damage to ECHCG [1, 5]	% damage to LEFCH [2, 3]	% damage to LEFCH [2, 4]	% damage to LEFCH [2, 5]	further results
CCc1ccc(-c2ccc(Cl)cc2F)cc1C1C(=O)C(C)(C)OC(C)(C)C1=O [compound A-4]	55%	85%	90%	0%	0%	20%	
CCc1ccc(-c2ccc(Cl)cc2Cl)cc1C1C(=O)C(C)(C)OC(C)(C)C1=O [compound A-7]	35%	55%	65%	0%	5%	5%	
CCc1ccc(-c2ccc(Cl)cc2Cl)cc1C1=C(OC(=O)OC)C(C)(C)OC(C)(C)C1=O [compound A-9]	15%	40%	70%	80%	80%	90%	herbicidal activity against LEFCH ([2]; compound alone (EC formulation) at 60, 90 or 120 g/ha): 80-90%
CCOc1cc(Cl)c(CS(=O)(=O)C2=NOC(C)(C)C2)cc1Cl [fenoxasulfone, reference compound]							% damage to ECHCG ([1]; co-herbicide alone 200 g/ha): 65%; % damage to LEFCH ([2]; co-herbicide alone 200 g/ha): 70%
COc1cc(OC)nc(NC(=O)NS(=O)(=O)c2c(Cl)nc3ccccn23)n1 [imazosulfuron, reference compound]							% damage to ECHCG ([1]; co-herbicide alone 80 g/ha): 50%; % damage to LEFCH ([2]; co-herbicide alone 80 g/ha): 0%
CCCc1ccc2nc(Cl)c(S(=O)(=O)NC(=O)Nc3nc(OC)cc(OC)n3)n2n1 [propyrisulfuron, reference compound]							% damage to ECHCG ([1]; co-herbicide alone 80 g/ha): 80%; % damage to LEFCH ([2]; co-herbicide alone 80 g/ha): 0%
Cn1nc(C(F)(F)F)c(CS(=O)(=O)C2=NOC(C)(C)C2)c1OC(F)F [pyroxasulfone, reference compound]							% damage to Rice IR-64 (Rice IR-64): 45%; % damage to ECHCG ([1]; co-herbicide alone 10 g/ha): 60%; % damage to LEFCH ([2]; co-herbicide alone 10 g/ha): 70%
